Assay results as given in patent publication US20230140972A1, “GLYCEROL GLUCOSIDE-BASED COMPOUND AND COMPOSITION COMPRISING SAME FOR ULTRAVIOLET LIGHT SHIELD OR ANTI-INFLAMMATION” (ATHENA CO., LTD., priority 2020, published 2023).
Where “and” joins values, the source holds several entries; their conditions need not be identical. Identical values can stand only once.

Tested on: RAW264.7 cells
Assay: Cell viability measurement using MTT assay
Assay type: cell-based, mouse
Conditions: vs untreated group
Method: In order to evaluate a cell viability of the glycerol glucoside-based compound sample (EPS-S), an MTT assay was performed.
Specifically, subcultured RAW264.7 cells and HDF cells were aliquoted into a 96-well plate at 1×10^5, respectively, and cultured for 24 hours at 37° C. in an incubator containing 5% carbon dioxide, and then, a culture media was replaced with a serum-free media. Then, each sample was treated onto each cell by concentration. After culturing for 24 hours, an MTT solution was put into each well, reacted for 2 hours under light blocking, a supernatant was removed, a formed formazan was completely dissolved in DMSO, and an absorbance was measured at 540 nm with a microplate reader. In such a case, SDS was used as a positive control group. The test result value was calculated as in Equation 1 below and expressed as the cell viability compared to an untreated group, and was expressed as a mean±standard deviation.

For `CCCCCCCCCCCCOS(=O)(=O)[O-].[Na+]` [SDS], the cell viability (24 h, 1 ppm) was 99.95% and 99.95 ± 0.72%, the cell viability (24 h, 10 ppm) was 96.29% and 96.29 ± 0.16% and the cell viability (24 h, 100 ppm) was 7.75% and 7.75 ± 0.14%. The cell viability (24 h, 1,000 ppm) was 6.67% and 6.67 ± 0.16%.
